Measurements from publication PMC11396062, “The n-Butanol Extract Obtained from the Inner Bark of Tabebuia rosea (Bertol.) DC, Specioside, and Catalposide Induce Leukemia Cell Apoptosis in the Presence of Apicidin” (Molecules, 2024).
In brackets after ≈: the same amount, converted by molar mass. Read-outs that look alike come from different tables or passages of the source.

Key:
[1] = system: THP-1 cells; assay: MTT cell viability assay, THP-1 cells; assay type: cell-based, human; details: for IC50: MTT, n = 3
Experimental: Jurkat and THP-1 cell lines were purchased from the American Type Culture Collection (ATCC, Rockville, MD, USA); Jurkat is a human lymphocytic cell line representing acute T-cell leukemia, and THP-1 is a monocytic cell line that represents acute myelogenous leukemia (AML). […] Cat Nos. […] The cells were maintained at 37 °C in a humidified atmosphere with 5% CO2. The culture medium was exchanged with fresh medium every 2-3 days. Peripheral blood mononuclear cells (PBMCs) were isolated from normal human venous blood. Further, 10 milliliters of human blood was mixed with 10 mL of RPMI-1640 containing 50 μL of heparin and gradually poured over 1 mL of HISTOPAQUE®-1119 (Sigma). The plasma was removed by centrifugation at 3000 rpm for 30 min. The peripheral blood mononuclear cell-containing layer was collected with a pipette and diluted in 4 mL of PBS. PBMCs were harvested by centrifugation at 1500 rpm for 10 min at room temperature, resuspended in RPMI-1640 with 10% FBS, and incubated at 37 °C in 5% CO2 humidified air. […] Doxorubicin was used as a reference standard drug (positive control). After treatment, the medium was discarded; 200 μL of RPMI 1640 medium without phenol red containing 0.5 mg/mL MTT (Sigma Chemical Co., Saint Louis, MO, USA; Cat. No. […] The plates were incubated for four hours at 37 °C with 5% CO2 in a humidified atmosphere. The medium was discarded, and 100 μL of DMSO was added to solubilize the formazan crystals. The absorbance was measured with an ELISA microplate reader at 492 nm (ELx800; BioTek Instruments Inc., Winooski, VT, USA). The percentage of viable cells was calculated on the basis of the nontreated control (taken as 100%). […] Three independent assays were performed, each in triplicate. The selectivity index corresponds to the ratio of the IC50 value calculated for the activity of synthesized compounds on a regular cell line (PBMCs) to that of the IC50 calculated for cancer cell lines (Jurkat and THP-1). Values greater than two were optimal for an efficient selectivity index.

[2] = system: BAX; assay: RT-qPCR BAX mRNA expression; assay type: cell-based, human; details: THP-1, catalposide 44 and 66 μg/mL, specioside 20, 40 and 60 μg/mL
Experimental: (§1) After treatment, mRNA extraction was performed using the RNeasy Plus Mini Kit (Qiagen, Germantown, MD, USA; Cat No. 74134). The mRNA was quantified with a NanoDrop 2000c (Thermo Fisher Scientific, Waltham, MA, USA). The expression of the MAPK14 (gene encoding p38), BCL2, and BAX genes was evaluated by qRT–PCR and quantified with the 2^−ΔΔCt method in the Applied Biosystems StepOnePlus Real-Time PCR System (Applied Biosystems, Foster City, CA, USA), which uses predesigned TaqMan Gene Expression Assays (codes […], Hs00608023_m1, and Hs00180269_m1, respectively) (Applied Biosystems, Foster City, CA, USA) and the TaqMan® RNA-to-CT TM 1-Step Kit (Applied Biosystems, Foster City, CA, USA, Cat No. 4392653). The reaction mixture was incubated at 48 °C for 15 min and 95 °C for 10 min and then cycled (40 cycles) at 95 °C for 15 s and 60 °C for 1 min. GAPDH was used as an endogenous control.

[3] = system: BCL2; assay: RT-qPCR BCL2 mRNA expression; assay type: cell-based, human; details: THP-1, catalposide 44 μg/mL, specioside 40 μg/mL
Experimental: as §1

[4] = system: BAX; assay: Western blot Bax protein; assay type: cell-based, human; details: THP-1, catalposide 44 and 66 μg/mL, specioside 20, 40 and 60 μg/mL
Experimental: (§2) THP-1 cells were seeded in 24-well plates (5 × 10^5 cells/well), and after 24 h of incubation, they were pretreated with 1 µM apicidin for 24 h and then treated with different concentrations of the n-butanol extract, catalposide, and specioside for 24 h. After treatment, the cells were lysed with an Abcam protein extraction kit (ab270054), and a phosphatase inhibitor cocktail (ab201115) was added. The supernatants of the cell extracts were quantified with a BCA protein assay (Thermo Scientific Pierce #23227, Waltham, MA, USA). Equivalent amounts of protein were electrophoresed on 10% SDS polyacrylamide gels and then electroblotted onto 0.45 μm polyvinylidene difluoride (PVDF) membranes (GE Healthcare, Chicago, IL, USA). […] The signals were detected using SuperSignal™ West Pico PLUS Chemiluminescent Substrate (Thermo Scientific Pierce cat 34577) and analyzed with a ChemiDoc XRS+ system (Bio-Rad, Hercules, CA, USA). The density of each band was measured using ImageJ software V. 1.53n, 7 November 2021 (NIH, Bethesda, MD, USA), and the protein levels were normalized to the GAPDH levels. The data are expressed as the means of three independent experiments. […]

[5] = system: p38 MAPK; assay: Western blot p38 phosphorylation; assay type: cell-based, human; details: THP-1, APC pretreatment, p < 0.001
Experimental: as §2

[6] = system: Hep-G2 cells; set-up: method as in PMID 21678519; details: cited from earlier work
[7] = Homo sapiens, THP-1, 12 h, read-out: IC50
[8] = Homo sapiens, THP-1, 24 h, read-out: IC50
[9] = Homo sapiens, THP-1, 48 h, read-out: IC50

| IC50 [1, 7] [µg/mL] | IC50 [1, 8] [µg/mL] | IC50 [1, 9] [µg/mL] | IC50 ([1]; THP-1, 24 h) [µg/mL] | Compound | SI (selectivity index) ([1]; IC50 PBMC / IC50 THP-1, 12 h) | SI (selectivity index) ([1]; IC50 PBMC / IC50 THP-1, 24 h) | SI (selectivity index) ([1]; IC50 PBMC / IC50 THP-1, 48 h) | expression of Bax mRNA with APC pretreatment [2] | expression of Bcl-2 mRNA with APC [3] | expression of Bax protein with APC pretreatment [4] | phosphorylation of p38 in cells pretreated with APC compared with control [5] | effect in Hep-G2 cells [6] |
| --- | --- | --- | --- | --- | --- | --- | --- | --- | --- | --- | --- | --- |
| 47.2 ± 2.3 (≈ 92.9 µM) | 40.3 (≈ 79.3 µM) | 26.3 ± 6.8 (≈ 51.8 µM) | 40.32 ± 1.3 (≈ 79.3 µM) | O=C(/C=C/c1ccc(O)cc1)O[C@H]1[C@@H]2C=CO[C@@H](O[C@@H]3O[C@H](CO)[C@@H](O)[C@H](O)[C@H]3O)[C@@H]2[C@@]2(CO)O[C@@H]12 [Specioside] | 3.49 | 1.75 | 2.06 | increased | decreased | increased | significantly increased | – |
| 122 ± 3.3 (≈ 252 µM) | 43.9 (≈ 91 µM) | 30.2 ± 1.67 (≈ 62.5 µM) | 43.86 ± 2.2 (≈ 90.9 µM) | O=C(O[C@H]1[C@@H]2C=CO[C@@H](O[C@@H]3O[C@H](CO)[C@@H](O)[C@H](O)[C@H]3O)[C@@H]2[C@@]2(CO)O[C@@H]12)c1ccc(O)cc1 [Catalposide, catalposide] | 1.03 | 1.99 | 1.44 | increased | decreased | increased | significantly increased | only had cytotoxic and cytostatic effects |
